Measured values published in a compilation of properties of binary mixtures (doi:10.1007/s10953-017-0608-9).
“And” between values parts separate entries of the source, which are not always exact repeats. Equal values may be shown once.

Test: xn = mol fraction of the nth substance listed
Conditions: 101 kPa

electrical conductivity (288.15 K, x1 = 0.0001): 0.029 S/m and 0.0557 S/m
electrical conductivity (288.15 K, x1 = 0.0002): 0.0822 S/m
viscosity (288.15 K, x1 = 0.0002): 1.158 mPa·s
electrical conductivity (298.15 K, x1 = 0.0001): 0.0353 S/m and 0.0696 S/m
viscosity (298.15 K, x1 = 0.0001): 0.896 mPa·s
electrical conductivity (308.15 K, x1 = 0.0001): 0.0426 S/m and 0.0846 S/m
viscosity (308.15 K, x1 = 0.0001): 0.725 mPa·s and 0.73 mPa·s
Compound: CCCCCCCCn1cc[n+](C)c1.[Br-] + O
